Results: publication PMC4878759 (PLoS ONE, 2016)
Like-named read-outs stand apart in the source and are kept apart here.

Columns and labels:
VRAC [1] = experiment: Whole-cell patch clamp of hypotonicity-induced VRAC currents in LN215 cells; format: cell-based, human; conditions: 10 μM
Excerpt: Pipettes were pulled from borosilicate glass and had resistances of 3–5 MΩ after fire polishing. […] The liquid junction potential (~2.4 mV) was not corrected. After establishing the whole-cell configuration, whole-cell capacitance and series resistance were compensated with the amplifier circuitry. […] VRAC was activated by exposing LN215 cells to a 25% hypotonic bath solution.

VRAC [2] = experiment: VRAC activity by YFP quenching in LN215 cells; format: cell-based, human; conditions: 10 μM
Experimental: LN215 cells, a human glioma cell line, were stably transfected with YFP-F46L/H148Q/I152L, a halide sensor YFP. After the cells were incubated on 96well black plates (Corning Inc., Corning, NY) for 48 hours, each well of the 96-well plate was washed 3 times in PBS (200 μL/wash), and the wells were filled with 50 μl/well isotonic solution (in mM): 140 NaCl, 5 KCl, 20 HEPES (310 mOsm/kg; pH 7.4 with NaOH). In each well, VRAC expressed on the cells were stimulated with addition of 50 μl of hypotonic solutions (in mM): 5 KCl, 20 HEPES, 90 mannitol (120 mOsm/kg). Test compounds (1 μL) were added to each well in a dose dependent manner. After 5 min, 96-well plates were transferred to a plate reader for fluorescence assay. Each well was assayed individually for VRAC-mediated I^- influx by recording fluorescence continuously (400 ms per point) for 7.6 s. YFP fluorescence was recorded 0.4 s for baseline, then 100 μL of 140 mM I^- solution was added at 0.4 s to see the change in fluorescence. Initial iodide influx rate was determined from the initial slope of fluorescence decrease, by nonlinear regression, following infusion of iodide.

ANO2 = tested on: ANO2; design: method as in PMID 22526416; conditions: ref [38]; cited from earlier work
VRAC [3] = tested on: VRAC; design: method as in PMID 24965069, PMID 25163766, PMID 26438191; conditions: ref [26]–[28]; cited from earlier work
ANO1 = tested on: ANO1; design: method as in PMID 22526416; conditions: ref [38]; cited from earlier work
ENaC = target: T1, ENaC (Homo sapiens, UniProt P37088+P51168+P51170); experiment: Short circuit current in T84 cells expressing ENaC; format: cell-based; conditions: 100 μM
T1 construct: endogenous in cells; host or cells: T84 cells, ENaC induced with 2 mM sodium butyrate for 2 days
T1 sequence (P37088 1-669): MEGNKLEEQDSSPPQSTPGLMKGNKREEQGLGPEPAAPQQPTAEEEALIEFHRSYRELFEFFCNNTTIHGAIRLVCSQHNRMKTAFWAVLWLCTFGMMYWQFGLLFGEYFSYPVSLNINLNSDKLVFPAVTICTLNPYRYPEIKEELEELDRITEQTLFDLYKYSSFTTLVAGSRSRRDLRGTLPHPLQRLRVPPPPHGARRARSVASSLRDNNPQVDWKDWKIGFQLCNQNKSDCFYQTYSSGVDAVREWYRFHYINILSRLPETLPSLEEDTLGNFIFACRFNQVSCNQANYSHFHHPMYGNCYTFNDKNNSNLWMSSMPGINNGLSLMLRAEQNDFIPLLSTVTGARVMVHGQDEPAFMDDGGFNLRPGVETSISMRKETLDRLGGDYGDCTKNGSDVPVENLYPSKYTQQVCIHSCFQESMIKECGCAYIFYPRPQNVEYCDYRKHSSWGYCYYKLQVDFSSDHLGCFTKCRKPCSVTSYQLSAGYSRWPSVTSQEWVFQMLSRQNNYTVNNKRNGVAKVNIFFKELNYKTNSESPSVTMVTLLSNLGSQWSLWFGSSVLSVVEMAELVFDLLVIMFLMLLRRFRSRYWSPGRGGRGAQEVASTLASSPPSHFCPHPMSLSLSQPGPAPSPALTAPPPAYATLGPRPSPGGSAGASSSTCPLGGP
T1 sequence (P51168 1-640): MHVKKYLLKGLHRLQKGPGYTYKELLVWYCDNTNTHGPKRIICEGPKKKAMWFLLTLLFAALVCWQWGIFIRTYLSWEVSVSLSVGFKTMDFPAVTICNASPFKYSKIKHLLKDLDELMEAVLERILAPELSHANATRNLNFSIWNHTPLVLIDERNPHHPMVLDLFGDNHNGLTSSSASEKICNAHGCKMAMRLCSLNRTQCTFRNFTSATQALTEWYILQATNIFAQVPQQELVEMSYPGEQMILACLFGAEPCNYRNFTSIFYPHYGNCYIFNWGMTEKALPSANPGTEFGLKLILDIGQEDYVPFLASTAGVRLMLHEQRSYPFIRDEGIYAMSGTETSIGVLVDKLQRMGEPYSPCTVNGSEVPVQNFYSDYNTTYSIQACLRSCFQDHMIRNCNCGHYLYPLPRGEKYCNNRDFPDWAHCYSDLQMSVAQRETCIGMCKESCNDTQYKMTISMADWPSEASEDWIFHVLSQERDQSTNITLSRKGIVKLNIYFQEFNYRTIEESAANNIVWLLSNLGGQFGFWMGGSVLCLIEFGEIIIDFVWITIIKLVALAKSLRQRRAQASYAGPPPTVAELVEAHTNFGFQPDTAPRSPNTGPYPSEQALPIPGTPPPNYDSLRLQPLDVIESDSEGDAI
T1 sequence (P51170 1-649): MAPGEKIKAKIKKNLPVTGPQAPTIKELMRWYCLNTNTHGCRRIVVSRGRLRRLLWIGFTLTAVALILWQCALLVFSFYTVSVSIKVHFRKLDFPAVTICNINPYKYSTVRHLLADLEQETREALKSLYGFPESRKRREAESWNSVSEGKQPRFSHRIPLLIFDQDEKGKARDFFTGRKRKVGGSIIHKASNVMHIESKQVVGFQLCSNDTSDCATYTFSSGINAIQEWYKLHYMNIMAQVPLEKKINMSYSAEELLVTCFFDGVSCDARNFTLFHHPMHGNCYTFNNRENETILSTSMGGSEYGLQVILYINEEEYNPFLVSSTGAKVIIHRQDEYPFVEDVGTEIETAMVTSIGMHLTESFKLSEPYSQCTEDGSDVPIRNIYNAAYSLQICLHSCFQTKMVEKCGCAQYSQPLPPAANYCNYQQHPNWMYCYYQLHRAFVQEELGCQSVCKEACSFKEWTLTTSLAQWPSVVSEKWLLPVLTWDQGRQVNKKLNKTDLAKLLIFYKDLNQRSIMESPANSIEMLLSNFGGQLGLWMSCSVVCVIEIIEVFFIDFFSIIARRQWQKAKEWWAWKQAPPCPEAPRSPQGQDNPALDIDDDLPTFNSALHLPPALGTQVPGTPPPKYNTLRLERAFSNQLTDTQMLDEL
Experimental: Snapwell inserts containing ANO1, ANO2 or CFTR expressing FRT cells, ENaC expressing T-84 cells or the human primary airway epithelial cells were mounted in Ussing chambers (Physiologic Instruments, San Diego, CA). To induce transcriptional ENaC induction, the polarized T84 cells were incubated with 2 mM sodium butyrate for 2 days. To increase the functional expression of ANO1, the human airway epithelial cells were treated with IL-4 (10 ng/mL) for 2 days. For T-84 and the human primary airway epithelial cells, the apical and basolateral bath were filled with HCO3^—buffered solution containing (in mM): 120 NaCl, 5 KCl, 1 MgCl2, 1 CaCl2, 10 D-glucose, 2.5 HEPES, and 25 NaHCO3 (pH 7.4). For FRT cells, the basolateral bath was filled with the HCO3^—buffered solution and the apical bath was filled with a half-Cl^- solution. In the half-Cl^- solution 65 mM NaCl in the HCO3^—buffered solution was replaced by Na-gluconate. […] ATP was applied to the apical bath solution to induce intracellular calcium increase. […] Apical membrane currents were measured with an EVC4000 Multi-Channel V/I Clamp (World Precision Instruments, Sarasota, FL) and PowerLab 4/35 (AD Instruments, Castle Hill, Australia). Data were analyzed using Labchart Pro 7 (AD Instruments). The sampling rate was 4 Hz.
ANO1 was activated by either 10 μM Eact, an ANO1 activator, or 100 μM ATP.

CCCCC1(C2CCCC2)Cc2cc(OCCCC(=O)O)c(Cl)c(Cl)c2C1=O (centres unmarked) [DCPIB]
effect on hypotonicity-induced VRAC currents (VRAC [1]): almost completely blocked | block of VRAC activity (VRAC [2]): completely blocked

O=C(O)c1cc([N+](=O)[O-])ccc1NCCCc1ccccc1 [NPPB, 5-nitro-2-(3-phenylpropylamino)-benzoic acid]
inhibition of ANO2 (ANO2): inhibited | block of VRAC activity (VRAC [3]): potently blocked | inhibition of ANO1 (ANO1): inhibited

N=C(N)NC(=O)c1nc(Cl)c(N)nc1N [amiloride]
effect on ENaC channel activity (ENaC): fully blocked

O=C(O)c1cccnc1Nc1cccc(C(F)(F)F)c1 [niflumic acid]
inhibition of ANO2 (ANO2): inhibited | inhibition of ANO1 (ANO1): inhibited
